Three compounds from patent US7314621B2, “Cytidine deaminase” (Kyoto University, priority 1999, dated 2008) can be followed below.

One assay has as its target T1, AID protein (Mus musculus, UniProt Q9WVE0).
T1 construct: a full length AID cDNA was expressed as a fusion protein with glutathione S-transferase (GST); made in house; host or cells: E. coli DH5alpha
The experiment in a line: Inhibition of the cytidine deaminase activity of the AID-GST fusion protein. The assay is classed as biochemical. The conditions noted are these: for inhibition of the cytidine deaminase activity of AID protein: 20 mM printed for 1,10-o-phenanthroline, both isomers tested 0 to 20 mM; for inhibition of the cytidine deaminase activity of AID protein (in words): zinc chelator and inactive isomer. As to the method:
The purified AID-GST fusion protein prepared in the above (2, 4, 6, 8, 10, 20, 40, 60, 100, 200, 300, 400, and 600 ng) was incubated in the buffer (pH 7.5, the total amount 10 μl) containing 45 mM Tris with 3.3 μCi [^3H] deoxycytidine (24.8 Ci/mmol, DuPont) and 250 μM cytidine for 2 to 4 hours. The reaction was terminated by adding deoxycytidine (2 μl of 10 μg/ml) and deoxyuridine (2 μl of 10 μg/ml). Insoluble substances were removed by centrifugation, and the reaction mixture (4 μl) was subjected to the polyethylene imine-cellulose thin layer chromatography plate (VWR). The plate was developed in isopropyl alcohol/10% HCl (7:2 v/v). The plate was exposed to ultraviolet light (254 nm) for visualization and bands corresponding to deoxycytidine and deoxyuridine were collected, and added to Ultima Gold scintillation solution to be quantified by liquid scintillation photometer (Packard)

Assay [1] has as its system AID mRNA in mouse B cell clone CH12F3-2. In words: Cytokine-induced AID (23C9) mRNA expression, Northern blotting. The assay is classed as cell-based. The following applies: cycloheximide 200 ng/ml, 12 hours, IL-4, TGF-β, CD40L. The protocol:
The degree of enhanced expression of the gene coding for a novel protein 23C9 in mouse B cell clone CH12F3-2 stimulated with IL-4, TGF-β and CD40L was analyzed according to the standard method (L. Sambrook, E. F., Tom Maniatis., Second edition, Ed. Molecular Cloning (Nolan, C., Ed.), Cold Spring Harbour, 1989) by Northern blotting.
Mouse B cell clone CH12F3-2 was cultured in the presence of one of the following regents for 12 hours. • (1) IL-4, TGF-β and CD40L only. • (2) Cycloheximide which is a protein synthesis inhibitor (200 ng/ml), only • (3) IL-4, TGF-β and CD40L as well as Cycloheximide (200 ng/ml)
Northern blotting was conducted against mRNA (10 μg for each group) obtained in the same manner as previously reported (Nucleic Acid Res., 26:911-918, 1998) from each group of treated cells using a radio-labeled cDNA fragment (1,020 bp) coding for a novel protein 23C9, obtained in the above Example, according to the standard method (L. Sambrook, E. F., Tom Maniatis., Second edition, Ed. Molecular Cloning (Nolan, C., Ed.), Cold Spring Harbour, 1989).
As a control experiment, Northern blotting was conducted for mRNA derived from B cell clone CH12F3-2 cultured without any one of the above cytokines, or cycloheximide.
The amount of mRNA to be electrophoresed was adjusted using the amount of mRNA for glyceraldehyde-3-phosphate dehydrogenase (GAPDH) as an index. […]

Assay [2] relates to mouse B cell clone CH12F3-2. The experiment in a line: Production of looped-out circular DNA by class switch recombination (PCR, Southern hybridization). The conditions noted are these: cycloheximide 200 ng/ml, 6 hours, stimulation with IL-4, TGF-β, CD40L. The assay is classed as cell-based. As to the method: CH12F3-2 B cells, either stimulated by IL-4, TGF-β, and CD40L or unstimulated, were cultured for 6 hours in the presence or absence of cycloheximide (200 ng/ml) which is a protein synthesis inhibitor, respectively. Genomic DNA was extracted from each cell, and PCR was conducted with the DNA as a template following standard methods to amplify circular DNA including an Sμ sequence and an Sα sequence. PCR was conducted using pairs of primers, αF1 and […], or αF1 and […].
As a control, genomic DNA encoding glyceraldehyde-3-phosphate dehydrogenase (GAPDH) was amplified by PCR.
The PCR products were subjected to gel electrophoresis and ethidium bromide staining. FIG. 1(a) and FIG. 2(a) show the results.
To confirm the presence or absence of the amplification of a circular DNA including the looped-out S region, Southern hybridization was conducted against the PCR products using a mouse Sa region gene as a hybridization probe, according to standard methods (L. Sambrook E. F., Tom Maniatis., Second edition, Ed. Molecular Cloning (Nolan, C., Ed.) Cold Spring Harbor, 1989). A 1,155 bp DNA fragment obtained by digesting 10 kb EcoRI cleaved fragment IgH703 with Hind III and Earl was used as an Sα gene (Genbank #D11468, DNA No. 1993-3148) (J, Biol. Chem., Vol. 268, p. 4651-4665). FIGS. 1(b) and 2(b) show the results.

T1 sequence (Q9WVE0 whole entry, the tested form may be a part): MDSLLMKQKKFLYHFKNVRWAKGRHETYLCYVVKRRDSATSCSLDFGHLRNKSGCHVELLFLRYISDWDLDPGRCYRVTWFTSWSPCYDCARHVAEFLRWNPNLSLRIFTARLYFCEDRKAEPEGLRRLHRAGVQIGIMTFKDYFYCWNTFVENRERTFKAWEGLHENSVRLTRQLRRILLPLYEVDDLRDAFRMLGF

Regarding `c1cnc2c(c1)ccc1cccnc12` [1,10-o-phenanthroline], on AID protein, the “inhibition of the cytidine deaminase activity of AID protein” value was “about 91%” and the “inhibition of the cytidine deaminase activity of AID protein (in words)” value is on record as “inhibits”.

In the case of `C[C@@H]1C[C@@H]([C@H](O)CC2CC(=O)NC(=O)C2)C(=O)[C@@H](C)C1` [cycloheximide], the “induction of AID mRNA expression by cytokines” value in assay [1] is “can be inhibited”. Also, the “production of looped-out DNA containing the Sα sequence with class switch recombination” value in assay [2] is on record as “inhibited”.

Consider `c1cnc2c(c1)ccc1ncccc12` [1,7-o-phenanthroline], for which, at AID protein, the “inhibition of the cytidine deaminase activity of AID protein” value is given as “about 13%” and the “inhibition of the cytidine deaminase activity of AID protein (in words)” value is “weak inhibition”.
